Data from BindingDB's records for patent WO2021069705 (MONTE ROSA THERAPEUTICS AG, 2021).

Target: Protein cereblon (Homo sapiens, UniProt Q96SW2)
Test: Protocol for Fluorescent Polarization assay
Method: Compound activity was monitored in a fluorescence polarization (FP) homogeneous assay using 1 -[5-({2-[2-(2-{[2-(2,6-dioxopiperidin-3-yl)-1 ,3-dioxo-2,3-dihydro-1 H-isoindol-4-yl]oxy}acetamido)ethoxy]ethyl}carbamoyl)pentyl]-3,3-dimethyl-2-[(1 E,3E)-5-[(2E)-1 ,3,3-trimethyl-5-sulfo-2,3-dihydro-1 H-indol-2-ylidene]penta-1 ,3-dien-1 -yl]-3H-indol-1 -ium-5-sulfonate as a fluorescent probe. Unless otherwise stated, all reagents were purchased from Sigma Aldrich. Enzymatic reactions were conducted in Perkin-Elmer Black 384 well ProxiPlate Plus (catalogue no. 6008269) in 10 μL total volume. Full length wild-type cereblon CRBN (80.0 nM, 10 μL) was incubated in assay buffer containing 20 mM HEPES (pH 8.0), 1 50 NaCl, 0.5 mM TCEP and 0.05% Tween 20 in the presence or absence of compound (300 nL). Inhibitors were stored as 10 mM DMSO stocks in an inert environment (low humidity, dark, low oxygen, room temperature) using the Storage Pod System. Compounds and DMSO were dispensed using the Echo E5XX (Labcyte Inc. USA) to give concentrations from 300 to 0.937 or 3000 to 9.3 nM in a 1 2 data point curve. […] FP was measured after a period of 1 2 hours using a Pherastar plate reader (BMG Labtech, Germany) exciting at 590 nm and measuring the amount of parallel and perpendicular light at 675 nm. […]

Sequence of Protein cereblon (Q96SW2 whole entry): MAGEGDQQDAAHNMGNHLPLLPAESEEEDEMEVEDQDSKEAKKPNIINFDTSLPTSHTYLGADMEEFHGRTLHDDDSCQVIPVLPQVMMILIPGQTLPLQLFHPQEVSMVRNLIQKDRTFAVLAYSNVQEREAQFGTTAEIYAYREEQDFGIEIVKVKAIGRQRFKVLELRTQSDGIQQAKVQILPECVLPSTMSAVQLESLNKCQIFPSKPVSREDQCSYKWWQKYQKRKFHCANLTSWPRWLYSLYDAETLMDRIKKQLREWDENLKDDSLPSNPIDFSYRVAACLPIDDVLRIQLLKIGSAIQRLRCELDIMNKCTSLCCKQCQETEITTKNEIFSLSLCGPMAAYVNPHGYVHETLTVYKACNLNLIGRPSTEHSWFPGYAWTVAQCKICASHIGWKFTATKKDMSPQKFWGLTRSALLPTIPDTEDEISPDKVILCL

O=C1CCC(N2Cc3ccc(CNC(=O)Nc4ccc(Br)cc4)cc3C2=O)C(=O)N1 (stereo unspecified) [WO2021069705, Compound 9]
IC50: 617 nM
